According to the NIST ThermoML archive (doi:10.1021/acs.jced.7b00740):
Numbers after ± are expanded uncertainties.

Legend:
[1] = Liquid; for mass density: 293.15 K, 101.33 kPa, Pycnometric method; for vapor or sublimation pressure: Ebulliometric method (Recirculating still)
[2] = refractive index (Na D-line) (dimensionless); conditions: 298.15 K; 101.33 kPa; Liquid; Standard Abbe refractometry

mass density [1] [kg/m3]	vapor or sublimation pressure ([1]; 386.53 K) [kPa]	refractive index [2]	vapor or sublimation pressure ([1]; 366.13 K) [kPa]	vapor or sublimation pressure ([1]; 370.42 K) [kPa]	vapor or sublimation pressure ([1]; 390.92 K) [kPa]	vapor or sublimation pressure ([1]; 378 K) [kPa]	vapor or sublimation pressure ([1]; 351.51 K) [kPa]	SMILES
831.1 ± 0.7	101.33 ± 1	1.3818 ± 0.0005	–	–	–	–	–	CCCOCOCC [1-(ethoxymethoxy)propane]
841.2 ± 0.7	–	1.3757 ± 0.0005	101.33 ± 1	–	–	–	–	CCCOCOC [1-(methoxymethoxy)propane]
803.6 ± 0.7	–	1.3835 ± 0.0005	–	101.33 ± 1	–	–	–	CCCO [propan-1-ol]
809.5 ± 0.7	–	1.3971 ± 0.0005	–	–	101.33 ± 1	–	–	CCCCO [butan-1-ol]
958 ± 0.8	–	1.379 ± 0.0005	–	–	–	101.33 ± 1	–	COCOCOC [2,4,6-trioxaheptane]
789.2 ± 0.7	–	1.3595 ± 0.0005	–	–	–	–	101.33 ± 1	CCO [ethanol]
